Three compounds from US8541342B2, “Fungicidal substance combinations” (Bayer Cropsciene AG, priority 2007, dated 2013) can be followed below.

For one assay, the system named is Pyrenophora teres. The assay can be described thus: Pyrenophora teres test (barley)/protective. Conditions: protective spray on barley, evaluation 10 days after inoculation.
A further assay concerns Gibberella zeae. The assay can be described thus: microbe, parasite or virus in culture. The class given is cell-based. Conditions: Fusarium graminearum, 120 h, read-out: % efficacy.

On to `Cc1nn(C)c(F)c1C(=O)Nc1ccccc1C(C)CC(C)C` (stereo not shown) [(I), N-[2-(1,3-Dimethylbutyl)phenyl]-5-fluoro-1,3-dimethyl-1H-pyrazole-4-carboxamide], for which the “Efficacy in % found” value in the assay on Pyrenophora teres (62.5 g/ha) is 67%.

Take `COCC(=O)N(c1c(C)cccc1C)C(C)C(=O)OC` (stereo not shown) [(III), Metalaxyl]: the “Efficacy in % found” value in the assay on Pyrenophora teres (125 g/ha) was 22%.

As for `CO/N=C(/C(=O)OC)c1ccccc1CO/N=C(\C)c1cccc(C(F)(F)F)c1` [Trifloxystrobin, trifloxystrobin], in the assay with Gibberella zeae, the Efficacy at 0.3 ppm was determined as 40%. For the same compound, in the assay on Pyrenophora teres (62.5 g/ha), the “Efficacy in % found” value amounted to 78%.
